Assay results taken from ChEMBL document CHEMBL1122346, “Antihypertensive activity of 6-arylpyrido[2,3-d]pyrimidin-7-amine derivatives. 2. 7-Acyl amide analogues” (J Med Chem, 1983).

Tests used:
Type in all cases: functional
Rattus norvegicus [1] = test: Antihypertensive activity rating in conscious SHR after 10 hr post dose at 10 mg/kg (po); Range 10-20%
Rattus norvegicus [2] = test: Antihypertensive activity rating in conscious SHR after 24 h post dose at 10 mg/kg (po); 0=No significant reduction
Rattus norvegicus [3] = organism: Rattus norvegicus; test: Maximum percent decrease in blood pressure in SHR ( hour post dose in parentheses)
Rattus norvegicus [4] = test: Antihypertensive activity rating in conscious SHR after 2 hr post dose at 10 mg/kg (po); Range 10-20%
Rattus norvegicus [5] = test: Antihypertensive activity rating in conscious SHR after 2 hr post dose at 10 mg/kg (po); 0=No significant reduction
Rattus norvegicus [6] = test: Antihypertensive activity in conscious spontaneously hypertensive rats 24 hr following 50 mg/kg p.o.; No significant reduction.; conditions: route oral
Rattus norvegicus [7] = test: Antihypertensive activity in conscious spontaneously hypertensive rats 10 hr following 50 mg/kg p.o.; Range 10-20%.; conditions: route oral
Rattus norvegicus [8] = test: Antihypertensive activity in conscious spontaneously hypertensive rats 2 hr following 50 mg/kg p.o.; No significant reduction.; conditions: route oral
Rattus norvegicus [9] = test: Antihypertensive activity in conscious spontaneously hypertensive rats 10 hr following 50 mg/kg p.o.; No significant reduction.; conditions: route oral
Rattus norvegicus [10] = test: Antihypertensive activity rating in conscious SHR after 2 hr post dose at 50 mg/kg (po); Range 10-20%
Rattus norvegicus [11] = test: Antihypertensive activity rating in conscious SHR after 10 hr post dose at 10 mg/kg (po); 0=No significant reduction

Row | Compound | Activity rating (Rattus norvegicus [2]) [%] | Decrease (Rattus norvegicus [3]) [%] | Activity rating (Rattus norvegicus [6]) [%] | Activity rating (Rattus norvegicus [8]) [%] | Activity rating (Rattus norvegicus [9]) [%] | further results
1 | Cc1ncc2cc(-c3c(Cl)cccc3Cl)c(NC(=O)C(Cl)Cl)nc2n1 | 0 | 16 | – | – | – | Activity rating (Rattus norvegicus [1]): 10%; Activity rating (Rattus norvegicus [4]): 10%
2 | Cc1ncc2cc(-c3c(Cl)cccc3Cl)c(NC(=O)OC(C)C)nc2n1 | 0 | 15 | – | – | – | Activity rating (Rattus norvegicus [1]): 10%; Activity rating (Rattus norvegicus [5]): 0%
3 | C/N=C(\S)Nc1nc2nc(C)ncc2cc1-c1c(Cl)cccc1Cl | – | 12 | 0 | 0 | – | Activity rating (Rattus norvegicus [7]): 10%
4 | Cc1ncc2cc(-c3c(Cl)cccc3Cl)c(NC(=O)C3CC3)nc2n1 | – | – | 0 | 0 | 0 | –
5 | CCNC(=O)Nc1nc2nc(C)ncc2cc1-c1c(Cl)cccc1Cl | – | – | 0 | 0 | 0 | –
6 | CC(=O)Nc1nc2ncncc2cc1-c1c(Cl)cccc1Cl | – | 16 | 0 | – | – | Activity rating (Rattus norvegicus [7]): 10%; Activity rating (Rattus norvegicus [10]): 10%
7 | Cc1ncc2cc(-c3c(Cl)cccc3Cl)c(NC(=O)c3ccccc3F)nc2n1 | 0 | – | – | – | – | Activity rating (Rattus norvegicus [5]): 0%; Activity rating (Rattus norvegicus [11]): 0%
8 | C=CCNC(=O)Nc1nc2nc(C)ncc2cc1-c1c(Cl)cccc1Cl | – | 13 | 0 | 0 | – | Activity rating (Rattus norvegicus [7]): 10%
9 | Cc1ncc2cc(-c3c(Cl)cccc3Cl)c(=O)n(C)c2n1 | – | – | 0 | 0 | 0 | –
10 | Cc1ncc2cc(-c3c(Cl)cccc3Cl)c(NC(=O)C(C)C)nc2n1 | 0 | 15 | – | – | – | Activity rating (Rattus norvegicus [11]): 0%; Activity rating (Rattus norvegicus [4]): 10%
11 | Cc1ncc2cc(-c3c(Cl)cccc3Cl)c(NC(=O)C(C)(C)C)nc2n1 | 0 | – | – | – | – | Activity rating (Rattus norvegicus [5]): 0%; Activity rating (Rattus norvegicus [11]): 0%
12 | Cc1ncc2cc(-c3c(Cl)cccc3Cl)c(NC(=O)CN(C)C)nc2n1 | 0 | 18 | – | – | – | Activity rating (Rattus norvegicus [1]): 10%; Activity rating (Rattus norvegicus [4]): 10%
13 | CC(=O)Nc1nc2nc(C)nc(C)c2cc1-c1ccccc1C | – | – | 0 | 0 | 0 | –
14 | CC(=O)Nc1nc2nc(C)nc(NC(C)=O)c2cc1-c1c(Cl)cccc1Cl | – | – | 0 | 0 | 0 | –
15 | Cc1ncc2cc(-c3c(Cl)cccc3Cl)c(NC(=O)Nc3ccccc3)nc2n1 | – | – | 0 | 0 | 0 | –
16 | CCSCC(=O)Nc1nc2nc(C)ncc2cc1-c1c(Cl)cccc1Cl | 0 | 19 | – | – | – | Activity rating (Rattus norvegicus [11]): 0%; Activity rating (Rattus norvegicus [4]): 10%
17 | CC(=O)Nc1nc2nc(C3CC3)ncc2cc1-c1c(Cl)cccc1Cl | – | 24 | 0 | – | – | Activity rating (Rattus norvegicus [7]): 10%; Activity rating (Rattus norvegicus [10]): 10%
18 | COc1ccc(C(=O)Nc2nc3nc(C)ncc3cc2-c2c(Cl)cccc2Cl)cc1OC | 0 | 16 | – | – | – | Activity rating (Rattus norvegicus [1]): 10%; Activity rating (Rattus norvegicus [4]): 10%
19 | CC(=O)Nc1nc2ncncc2cc1-c1ccccc1C | – | – | 0 | 0 | 0 | –
20 | COc1ccc(CC(=O)Nc2nc3nc(C)ncc3cc2-c2c(Cl)cccc2Cl)cc1OC | 0 | – | – | – | – | Activity rating (Rattus norvegicus [5]): 0%; Activity rating (Rattus norvegicus [11]): 0%
21 | CN/C(=N/c1nc2nc(C)ncc2cc1-c1c(Cl)cccc1Cl)SC | – | – | 0 | 0 | 0 | –
22 | CC(=O)Nc1nc2nc(C)ncc2cc1-c1ccccc1C | – | – | 0 | 0 | 0 | –
23 | Cc1ncc2cc(-c3c(Cl)cccc3Cl)c(NC(N)=O)nc2n1 | – | 16 | 0 | 0 | 0 | –
